In patent publication US20140011772A1, “COMPOSITIONS AND METHODS FOR TREATING CONDITIONS ASSOCIATED WITH NEURONAL DYSFUNCTION” (NORTHWESTERN UNIVERSITY, priority 2009, published 2014):
“Also recorded” adds a separate entry of the source.

Tests used:
[1] = system: voltage-gated sodium channels of hippocampal CA1 pyramidal neurons; experiment: Voltage-clamp nucleated patch recordings of voltage-gated sodium currents in CA1 pyramidal cells; assay type: cell-based, rat
Method: To study the gating properties of the sodium channels, voltage-clamp recordings were performed in the nucleated patch configuration, which allows almost ideal voltage clamp, even for fast sodium currents (28). Recordings were performed at 24-25° C. using an Axopatch 200B (Axon Instruments) patch-clamp amplifier. Data were sampled at 20 kHz and filtered at 10 kHz. Patch pipettes had resistance of 2.5-4 MΩ (in working solution) and were pulled from Corning #0010 lead glass (WPI) or borosilicate 0.4 mm-walled glass (Dagan). The internal solution was CsCl-based and contained: 140 mM CsCl, 10 mM NaCl, 2 mM MgCl2, 10 mM EGTA, 2 mM Na2ATP, 0.1 mM NaGTP, 10 mM HEPES 10, pH 7.3 with CsOH.
Capacitive transients were reduced by wrapping the pipettes in parafilm and compensated using the fast compensation circuitry of the amplifier. The whole-cell configuration was obtained and the pyramidal identity of cells was quickly confirmed by presence of a sag in the membrane potential in response to a hyperpolarizing current injection. The pipette was then slowly withdrawn while applying a constant negative pressure (−90 to −130 mbar). After excision, patches were held at −90 mV with a small pressure (−15 to −20 mbar). Sodium currents were then obtained by offline digital subtraction of traces in TTX from control traces.
Drugs were applied to the patches by using a multi-barrel system consisting of 4 glass capillaries (1.5 mm ID) glued together and connected to a syringe pump (WPIL). The patch-pipette carrying the nucleated patch was inserted into each of the pipes, each containing a different extracellular solution. The system ensures that the solution speed is the same in each barrel. For these recordings, the extracellular solution consisted of HEPES-buffered ACSF: 138 mM NaCl, 10 mM HEPES, 2.5 mM KCl, 2 mM CaCl2, 1 mM MgCl2 and 25 mM glucose (pH 7.3), 50 μM CdCl2, 10 mM TEA, and the drugs of interest.
The voltage-dependence of activation was fit with a Boltzmann function f(V)=1/(1+exp(−(V−V1/2)/k)) raised to the third power, where V1/2 is the voltage at which the activation is half-maximal, and k is the slope factor. The voltage-dependence of inactivation was similarly determined using a Boltzmann function, f(V)=1/(1+exp ((V−V1/2)/k)). The time course of recovery from inactivation was fit with a bi-exponential equation of the form, f(t)=1-(A1 exp(−t/τ) +A2 exp(−t/τ2)), yielding two time constants (τ) and relative contribution (A).
Voltage-gated sodium currents were recorded in nucleated patches from CA1 pyramidal cells from 11- to 20-day-old rats. FFA was tested at 0.2 mM, a concentration similar to that used as Ican blocker (0.5 mM, (32) and as two-pore potassium channels opener (0.1 mM, (40)).
The effect of FFA on the amplitude of sodium currents recorded in nucleated patches was investigated using a 30 ms step (to 10 mV) from −70 mV (close to the resting potential of hippocampal pyramidal neurons). 200 μM FFA blocked 34% of the sodium current (FIG. 7). The mechanism of action of FFA on sodium channels was characterized in detail. Even with a cesium-based intracellular solution and in the presence of extracellular TEA and cadmium some contaminating currents could often still be detected in pyramidal cell nucleated patches; therefore analysis was performed on TTX-subtracted traces only. TTX-sensitive current data for the control and the FFA were obtained from different patches.

SNI rats = experiment: Von Frey pain thresholds in the spared nerve injury (SNI) model of chronic neuropathic pain; assay type: in vivo, rat; conditions: for analgesic effect: 10 mg/kg in ethanol, oral; for analgesic effect / effect on pain threshold: 10 mg/kg; for effect on pain threshold: 10 mg/kg oral, both paws / non-operative paw
Method: Von Frey thresholds (a standard measure of pain sensitivity) were measured on the operated paw (left panel) and on the contralateral paw (right panel) in adult rats. 4 animals received the drug (10 mg/kg oral administration), and 4 animals the vehicle only. […] Note the fast onset of the effect, which may be very important for clinical use.
Chronic pain constitutes a primary reason driving people to seek health care. Pain was has been described as “epidemic” by the American Academy of Pain Management (American Pain Society, 1999): 50 million Americans are partially or totally disabled by pain. […] In particular, the spared nerve injury model (SNI), a reliable animal model of chronic neuropathic pain, was used to test the effect of oral administration of FFA. Control experiments were performed administrating the vehicle only. […] KCNK channels regulate neuronal excitability by regulating membrane potential, input resistance and synaptic gain (see, e.g., Taverna S, et al., 2005, J Neurosci Oct. 5; 25(40):9162-70; Meuth S G, et al., 2003 J Neurosci. Jul. 23; 23(16):6460-9; each herein incorporated by reference in their entireties).

[2] = system: CA1 pyramidal neurons in 4-AP bathed slices; experiment: 4-AP induced burst firing, whole-cell current clamp in 4-AP bathed slices; assay type: cell-based, rat
Method: The trace segments between dashed lines are shown on an expanded time scale (insets) to resolve bursts. (B) Firing frequency in response to depolarizing current injections. (C) Interspike interval ratio (ISI) against different current injections. For each current step, the ISI ratio was obtained dividing the interval between the first two spikes by the mean interspike interval. Recordings were obtained at 24-25° C.
(§1) Electrophysiological recordings: Slices were visualized with an Axioskop 2FS (Zeiss) upright microscope with a water-immersion 60× objective (0.9 NA, Olympus). For whole cell current-clamp recordings, the bath solution contained kynurenic acid (2 mM) and picrotoxin (0.1 mM) to block fast synaptic transmission, and pipettes were filled with internal solution consisting of: 140K-gluconate, 8 mM NaCl, 2 mM MgCl2, 1 mM EGTA, 2 mM Na2ATP 2, 0.1 mM NaGTP, 10 mM HEPES, pH 7.3 with KOH.
Experiments were conducted during development of embodiments of the present invention to examine the inhibitory effect of FFA on burst firing. All CA1 pyramidal cells show robust burst firing in the presence of 4-Aminopyridine (4-AP), a potassium channel blocker. Whole-cell current clamp recordings were obtained from CA1 pyramidal neurons in 4-AP bathed slices. These recordings were also performed at 32-33° C. and in the presence of kynurenic acid and picrotoxin.

[3] = system: epileptiform discharges in 4AP treated rat hippocampal slices; experiment: 4AP-induced epileptiform discharges, extracellular recordings from the CA1 area of hippocampal slices; assay type: cell-based
Method: A, extracellular recordings from the CA1 area of a rat hippocampal slices in which epileptic-like activity was induced by bath application of 4AP (50 μM). […] B, in another 4AP treated slice, the effects of different concentrations of FFA were tested.
Similar pathophysiologies exist for epilepsy and various chronic pain disorders (see, e.g., Pappagallo M (2003) Clin Ther. 25:2506-38; herein incorporated by reference in its entirety). […] Epileptic discharges were induced in a slice of rodent hippocampal tissue by bath application of the voltage-gated potassium channel blocker 4-aminopyridine (4AP) (see, e.g., Lopantsev V, Avoli M. (1998) J Physiol. 509:785-96; Brückner C, et al., Neurosci Lett. 268:163-5; each herein incorporated by reference in their entireties). […] The effect of flufenamic acid on hippocampal neurons, for example, involves induction of neuronal hyperpolarization by activating a background potassium conductance, and a reduction of neuronal excitability by inhibition of the voltage-gated sodium current.
Hippocampal brain slices: 11- to 20-day-old Long-Evans rats were anesthetized with isoflurane and killed by decapitation. The brain was removed from the skull in ice-cold artificial cerebrospinal fluid (ACSF), containing: 125 mM NaCl, 25 mM NaHCO3, 2.5 mM KCl, 1.25 mM NaH2PO4, 1.8 mM CaCl2, 1 mM MgCl2 and 2 mM 5 glucose, bubbled with 95% O2 and 5% CO2 (pH 7.4). Transverse hippocampal slices (300 μm thick) were cut using a vibroslicer (Dosaka) and stored in a solution containing: 87 mM NaCl, 25 mM NaHCO3, 2.5 mM KCl, 1.25 mM NaH2PO4, 0.5 mM CaCl2, 7 mM MgCl2, 75 mM sucrose and 25 mM glucose, bubbled with 95% O2 and 5% CO2; slices were kept at 35° C. for 15-20 minutes and subsequently at 24-25° C.

[4] = system: CA1 hippocampal pyramidal neurons; experiment: Whole cell current-clamp recordings, firing upon depolarizing current injection; assay type: cell-based, rat; conditions: FFA 0.2 mM
Method: (A) Current clamp recordings obtained (at 32-33° C.) from a CA1 hippocampal neuron in response to depolarizing current injection (150 pA, 1 s, bottom) in control (top trace) and in the presence of FFA (200 μM, middle). (B) Firing frequency in response to a series of current injections (1 s, 30 pA steps) in control and in FFA.
as §1
The effect of FFA on burst and tonic firing of hippocampal pyramidal neurons was examined during development of embodiments of the present invention (FIG. 13). Recordings were obtained in the presence of kynurenic acid (2 mM) and picrotoxin (0.1 mM) to block fast synaptic transmission. […] For a 150 pA depolarizing current pulse the firing frequency decreased from 21.7±1.82 Hz in control conditions to 1.87±0.61 Hz in FFA (FIG. 13A,B).

[5] = FIG. 5: 100 ms pre-pulses, 30 ms test pulse to 0 mV, 2 nucleated patches

O=C(O)c1ccccc1Nc1cccc(C(F)(F)F)c1 [FFA, 2-[[3-(trifluoromethyl)phenyl]amino]benzoic acid]
Na+ channel activation slope factor (k/3) ([1]; 200 μM FFA): 5.6±0.27 mV
block of the sodium current ([1]; 200 μM FFA, 30 ms step from −70 mV): 34%
mean peak Na+ current amplitude ([1]; 200 μM FFA, 50 ms prepulse to −70 mV, test pulse to −10 mV, 15 nucleated patches): −183.6±21.7 pA
Na+ channel activation mid-point potential ([1]; 200 μM FFA, Boltzmann raised to third power): −11.3±1.36 mV
shift in voltage dependence of inactivation ([1]; 50 ms prepulse): ~12 mV
steady-state inactivation mid-point potential ([1]; 50 ms prepulse, in FFA): −67.8±1.4 mV
steady-state inactivation slope factor ([1]; 50 ms prepulse, in FFA): 10.7±0.5 mV
steady-state inactivation mid-point potential ([1]; 200 ms prepulse, in FFA): −74.1±2.6 mV
steady-state inactivation slope factor ([1]; 200 ms prepulse, in FFA): 8.9±1.0 mV
sodium channel inactivation Boltzmann function half point [1, 5]: −89.7 mV
sodium channel inactivation Boltzmann slope [1, 5]: 9.1 mV
time constant of inactivation onset ([1]; at 0 mV, in FFA (0.2 mM)): 0.70 ± 0.03 ms
fraction of sodium channels available for activation ([1]; at −70 mV, in FFA): 0.57±0.04
effect on the sodium channel activation curve ([1]; hippocampal pyramidal neurons): No significant effect; also recorded: only minimal effect
analgesic effect (SNI rats): rapid and potent analgesic effect
analgesic effect (SNI rats; listed as flufenamic acid): potent analgesic effect
increase of Von Frey threshold on the injured paw (SNI rats; 10 mg/kg oral administration, operated paw): more than 10 times
effect on pain threshold (SNI rats): significantly increased the pain threshold in the non-operative paw
effect on pain threshold (SNI rats; listed as flufenamic acid): increased pain threshold in both paws
effect on spikes and burst firing ([2]; 4-AP slice epilepsy model, bath application of FFA): dramatically reduced both the total number of spikes and bursting; also recorded: completely abolishes burst firing
interspike interval (ISI) ratio ([2]; 120 pA current injection, 4-AP, FFA 0.2 mM): 0.74±0.06
effect on epileptiform discharges ([3]; 50 μM FFA, 4AP treated slice): small reduction in the amplitude of individual events
effect on epileptiform discharges ([3]; 100 μM FFA, 4AP treated slice): strongly reduced the discharge frequency
effect on epileptiform discharges ([3]; 200 μM FFA, 4AP 50 μM): completely and reversibly inhibited the epileptiform discharges; also recorded: completely abolished the discharges
antiepileptic effect, concentration dependence ([3]; 4AP treated slices, 50-200 μM): clear dose-dependent effect; also recorded: potent, concentration dependent, antiepileptic effect
firing frequency ([4]; 150 pA, 1 s depolarizing current pulse, kynurenic acid and picrotoxin): 1.87±0.61 Hz
effect on number of action potentials / repetitive firing ([4]; 1 s-long depolarizing current injection): strongly decreased the number of action potentials; also recorded: effectively decreases repetitive firing
